From the supplement of paper PMC3493320

System: NCI-H295R
Assay: IC50 (antiproliferative, ATP content)
Conditions: 48 h
Method in brief: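 Cell viability of adrenocortical carcinoma cells was assessed as ATP by CellTiter-Glo luminescence. Cells at 1500 per well in 1536-well plates, in serum-free DMEM with ITS, received compounds by pin transfer at 8 final concentrations (0.6 nM–46 µM) after overnight culture and were then held 48 h at 37 °C, 5% CO2. IC50 was calculated by logistic fitting against vehicle and positive-control wells, compounds with no concentration response being recorded as above the top dose.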

Structure (SMILES) | IC50 [µM]
OC[C@H]1O[C@@H]2O[C@H]3[C@H](O)[C@@H](O)[C@@H](O[C@H]4[C@H](O)[C@@H](O)[C@@H](O[C@H]5[C@H](O)[C@@H](O)[C@@H](O[C@H]6[C@H](O)[C@@H](O)[C@@H](O[C@H]7[C@H](O)[C@@H](O)[C@@H](O[C@H]8[C@H](O)[C@@H](O)[C@@H](O[C@H]1[C@H](O)[C@H]2O)O[C@@H]8CO)O[C@@H]7CO)O[C@@H]6CO)O[C@@H]5CO)O[C@@H]4CO)O[C@@H]3CO | > 46
C1COC(NC(C2CC2)C2CC2)=N1 | > 46
O[C@]([C@@H]1CSCN1)=O | > 46
NCc1cccnc1 | > 46
[O-][n+]1cccc(CO)c1 | > 46
CN1[C@@H]2CC[C@@H]1CC(OC1c3ccccc3CCc3ccccc31)C2.O=C(O)CC(O)(CC(=O)O)C(=O)O (stereo not given in full) | > 46
O=C(C2=CC=CC=C2)O[C@H]1C[C@H](CC3)N(C)[C@H]3[C@H]1[C@@](O)=O | > 46
C=Cc1ccc(S(=O)(=O)[O-])cc1.[Na+] | > 46
Oc1c(Br)cc(Br)cc1Br | > 46
CCCCc1ncc(/C=C(\Cc2cccs2)C(=O)O)n1Cc1ccc(C(=O)O)cc1.CS(=O)(=O)O | > 46
O=C5O[C@]4(CC5)[C@@]3(C)C[C@@H]6[C@]([C@@]([C@@]([H])3CC4)([H])[C@H]([C@@](OC)=O)C2)(O6)[C@@](C2=C1)(C)CCC1=O | > 46
C(=Cc1ccccc1)CN1CCN(C(c2ccccc2)c2ccccc2)CC1 | > 46
OC[C@H]1O[C@@H]2O[C@H]3[C@H](O)[C@@H](O)[C@@H](O[C@H]4[C@H](O)[C@@H](O)[C@@H](O[C@H]5[C@H](O)[C@@H](O)[C@@H](O[C@H]6[C@H](O)[C@@H](O)[C@@H](O[C@H]7[C@H](O)[C@@H](O)[C@@H](O[C@H]1[C@H](O)[C@H]2O)O[C@@H]7CO)O[C@@H]6CO)O[C@@H]5CO)O[C@@H]4CO)O[C@@H]3CO | > 46
C=CCOC(Cn1ccnc1)c1ccc(Cl)cc1Cl.O=S(=O)(O)O (stereo not given) | > 46
NCC1(CC(=O)O)CCCCC1 | > 46
[S]=[Sb](=[S])[S][Sb](=[S])=[S] | > 46
N#CN | > 46
CC(C)NCC(O)c1cc(O)cc(O)c1.CC(C)NCC(O)c1cc(O)cc(O)c1.O=S(=O)(O)O (stereo not given) | > 46
CC(=O)N[C@H]1C(O)O[C@H](CO)[C@@H](O)[C@@H]1O (stereo not given in full) | > 46
CN[C@@H]1[C@H](O[C@H]2[C@H](O[C@H]3[C@H](O)[C@@H](O)[C@H](NC(=N)N)[C@@H](O)[C@@H]3NC(=N)N)O[C@@H](C)[C@]2(O)C=O)O[C@@H](CO)[C@H](O)[C@H]1O.CN[C@@H]1[C@H](O[C@H]2[C@H](O[C@H]3[C@H](O)[C@@H](O)[C@H](NC(=N)N)[C@@H](O)[C@@H]3NC(=N)N)O[C@@H](C)[C@]2(O)C=O)O[C@@H](CO)[C@H](O)[C@H]1O.O=S(=O)(O)O.O=S(=O)(O)O.O=S(=O)(O)O | > 46

Structure (SMILES) | IC50 [µM]
CCOC(=O)c1ccccc1C(=O)OCC | > 46
CNC(=O)Oc1ccccc1C(=O)Nc1ccccc1 | > 46
OC[C@H](CC)NC(=O)[C@@H]2/C=C1/c3cccc4N\C=C(\C[C@H]1N(C)C2)c34 | > 46
O=C(O)c1ccc(S(=O)(=O)N(Cl)Cl)cc1 | > 46
CCN[C@H]1C[C@H](C)S(=O)(=O)c2sc(S(N)(=O)=O)cc21.Cl | > 46
O=P(O)(O)O | > 46
CC(=O)Nc1cccc(O)c1 | > 46
N#CC1(N2CCCCC2)CCCCC1 | > 46
CCOC(CN1CCN(CC(C)C(=O)c2ccccc2)CC1)c1ccccc1.Cl.Cl (stereo not given) | > 46
CC(C)C(=O)Nc1ccc([N+](=O)[O-])c(C(F)(F)F)c1 | > 46
c1ccc2c(c1)Nc1ccccc1S2 | > 46
CN1CCC(OC(=O)C(Oc2ccc(Cl)cc2)Oc2ccc(Cl)cc2)CC1 | > 46
CCN(CC)CCOCCOC(=O)C(CC)(CC)c1ccccc1.O=C(O)CC(O)(CC(=O)O)C(=O)O | > 46
Oc1ccc(Cl)cc1 | > 46
O=C1[O][Pt]2([NH][C@@H]3CCCC[C@H]3[NH]2)[O]C1=O | > 46
CNC(=O)OCC[N+](C)(C)C.[Cl-] | > 46
O=C1CCC(c2ccc(-n3ccnc3)cc2)=NN1 | > 46
O=C1NCN(c2ccccc2)C12CCN(CC1COc3ccccc3O1)CC2 (stereo not given) | > 46
Cc1cccc(C)c1NC1=NCCCS1 | > 46
CCN1CCCC(OC(=O)C(c2ccccc2)c2ccccc2)C1.Cl (stereo not given) | > 46

Other lines, results leading:

IC50 [µM] | Structure (SMILES)
> 46 | Nc1ccncc1N
> 46 | NCCCC[C@H](N[C@@H](CCc1ccccc1)C(=O)O)C(=O)N1CCC[C@H]1C(=O)O.O.O
> 46 | CCN(CC)CCSC(=O)C(c1ccccc1)c1ccccc1
> 46 | Cc1cc2c(OCC(CNC(C)(C)C)OC(=O)c3ccccc3)cccc2[nH]1 (stereo not given)
> 46 | CC1=C(/C=C/C(C)=C/C=C/C(C)=C/C=C/C=C(C)/C=C/C=C(C)/C=C/C2=C(C)CCCC2(C)C)C(C)(C)CCC1
> 46 | CC(C)[N+](C)(C)CC(O)COc1cccc2ccccc12.[Cl-] (stereo not given)
> 46 | O=C([O-])c1cc2cc(Cc3cccnc3)ccc2o1.[Na+]
> 46 | CCCCC(CC)COC(=O)c1ccccc1O (stereo not given)
> 46 | Cc1cc(N)c2ccccc2[n+]1CCCCCCCCCC[n+]1c(C)cc(N)c2ccccc21.[Cl-].[Cl-]
> 46 | CCC(C)(CN(C)C)OC(=O)c1ccccc1.Cl (stereo not given)
> 46 | C[C@@H](CC)C(=O)O[C@H]2C[C@@H](C)\C=C3\C=C/[C@H](C)[C@H](CC[C@@H]1C[C@@H](O)CC(=O)O1)[C@@H]23
> 46 | O=c1[nH]c(=O)n([C@H]2C[C@H](O)[C@@H](CO)O2)cc1C(F)(F)F
> 46 | Cl.NC1=NCC2c3ccccc3Cc3ccccc3N12 (stereo not given)
> 46 | O=C1C(O)=C(O)C(=O)C(O)=C1O
> 46 | Cc1nc(C)c(Cl)c(O)c1Cl
> 46 | CC(=O)OCC1=C(C(=O)[O-])N2C(=O)[C@@H](NC(=O)CSc3ccncc3)[C@H]2SC1.[Na+]
> 46 | Nc1nc(N)c(-c2ccccc2)s1
> 46 | Nc1ccc(C(=O)[O-])c(O)c1.[Na+]
> 46 | COc1ccc(CCN(C)CCCC(C#N)(c2ccc(OC)c(OC)c2)C(C)C)cc1OC (stereo not given)
> 46 | Nc1ccc(S(=O)(=O)Nc2cnc3ccccc3n2)cc1
> 46 | Cc1cccc(C)c1NC(=O)CN(CC(=O)O)CC(=O)O
> 46 | C=CC(C)(O)CC/C=C(\C)CCC=C(C)C (stereo not given)
> 46 | Cc1onc(-c2ccccc2)c1-c1ccc(S(N)(=O)=O)cc1
> 46 | CCCCCCCCCCOc1cc2c(O)c(C(=O)OCC)cnc2cc1OCC
> 46 | CC(=C(CCO)SSC(CCO)=C(C)N(C=O)Cc1cnc(C)nc1N)N(C=O)Cc1cnc(C)nc1N

IC50 [µM] | Structure (SMILES)
> 46 | O=c1c(-c2ccc(O)cc2)coc2cc(O)cc(O)c12
> 46 | CN1CCC(Nc2ncc3ncnc(Nc4ccc(F)c(Cl)c4)c3n2)CC1.Cl.Cl
> 46 | CO/N=C(\C(=O)N[C@@H]1C(=O)N2C(C(=O)O)=C(CSC(=O)c3ccco3)CS[C@H]12)c1csc(N)n1
> 46 | COc1cc(C(=O)NCCCCCC(=O)O)cc(OC)c1OC
> 46 | Cl.Nc1cc(Cl)c(NC2=NCCN2)c(Cl)c1
> 46 | FC1=CC2=C(O[C@H]([C@@](N)=O)C[C@@]([C@@]3=O)2NC(N3)=O)C=C1
> 46 | N[C@@H](CCC(=O)N[C@@H](CS)C(=O)NCC(=O)O)C(=O)O
> 46 | CC(C)[C@H](NC(=O)[C@H](CC(=O)O)NC(=O)[C@H](CCCCN)NC(=O)[C@@H](N)CCCNC(=N)N)C(=O)N[C@@H](Cc1ccc(O)cc1)C(=O)O
> 46 | O=C3N1/C(=C(\CS[C@@H]1[C@@H]3NC(=O)Cn2cnnn2)CSc4nnc(C)s4)C(O)=O
> 46 | Cc1ccc(C(C)(C)c2ccc(C)cc2)cc1
> 46 | Cc1ncc(C[n+]2csc(CCOP(=O)(O)O)c2C)c(N)n1.[Cl-]
> 46 | O=C(O)CN1C(=O)c2cccc3cccc(c23)C1=O
> 46 | O=C(O)C(=O)O.c1ccc2cc(C3=NCCN3)ccc2c1
> 46 | CN[C@H](CC(C)C)C(=O)N[C@H]1C(=O)N[C@@H](CC(N)=O)C(=O)N[C@H]2C(=O)N[C@H]3C(=O)N[C@H](C(=O)N[C@@H](C(=O)O)c4cc(O)cc(O)c4-c4cc3ccc4O)[C@H](O)c3ccc(c(Cl)c3)Oc3cc2cc(c3O[C@@H]2O[C@H](CO)[C@@H](O)[C@H](O)[C@H]2O[C@H]2C[C@](C)(N)C(O)[C@H](C)O2)Oc2ccc(cc2Cl)[C@H]1O.Cl (stereo not given in full)
> 46 | CN(C)CCC(O)(c1ccccc1)c1ccccc1Cl (stereo not given)
> 46 | Cc1cccc(Nc2ncccc2C(=O)O)c1C
> 46 | Cc1nnc(NS(=O)(=O)c2ccc(N)cc2)s1
> 46 | Cc1cnc(NC(=O)C2=C(O)c3ccccc3S(=O)(=O)N2C)s1
> 46 | COc1ccccc1N1CCN(CCCNc2cc(=O)n(C)c(=O)n2C)CC1.Cl
> 46 | CN1CC(=O)N2[C@H](c3ccc4c(c3)OCO4)c3[nH]c4ccccc4c3C[C@@H]2C1=O
> 46 | CCC(Cc1c(I)cc(I)c(N)c1I)C(=O)O (stereo not given)
> 46 | O=C(O)c1ccccc1C(=O)Nc1ccc(S(=O)(=O)Nc2nccs2)cc1
> 46 | Cc1cnc(C(=O)O)c[n+]1[O-]
> 46 | O=C(O)COc1ccccc1/C=N/NC(=O)c1ccncc1
> 46 | O=C2O[C@H](C)C/C=C/C=C/C=C/C=C/[C@H](O[C@@H]3O[C@H](C)[C@@H](O)[C@H](N)[C@@H]3O)C[C@]([C@H]([C@@](O)=O)[C@@H](O)C4)([H])O[C@]4(O)C[C@@H](O)C[C@@]1([H])O[C@@]([H])1/C=C/2
